# Like-named read-outs stand apart in the source and are kept apart here.
# What was measured:
# [1] = 80° C.; for inhibition of the decarboxylation: a day
# Experimental: The EDTA was prepared as a 10% aqueous solution for the addition.
# Samples were taken from the beakers after a day and analyzed for composition by HPLC.
# [2] = 80° C.
# Experimental: The glycine was prepared as a 10% aqueous solution for the addition.
# Samples were taken from the beakers after 6 days and analyzed for composition by HPLC.
# [3] = Inhibition of decarboxylation reaction when organic acid chelating agent was added (HPLC); format: physicochemical; details: 80° C.
# [4] = 1% by weight in unheated CNSL, Day 0
# [5] = 1% by weight in unheated CNSL, Day 1
# [6] = 5% by weight in unheated CNSL, Day 0
# [7] = 5% by weight in unheated CNSL, Day 1
# [8] = 1% by weight in unheated CNSL, Day 6
# [9] = 10% by weight in unheated CNSL, Day 0
# [10] = 10% by weight in unheated CNSL, Day 6
# [11] = 2% by weight in unheated CNSL, Day 0
# [12] = 2% by weight in unheated CNSL, Day 6
smiles,measurement,setting,value
"O=C(O)CN(CCN(CC(=O)O)CC(=O)O)CC(=O)O [EDTA, ethylenediamine tetraacetic acid]",Anacardic Acid 15:1 Composition (%),[1]; [4],35.11%
same,Anacardic Acid 15:1 concentration,[1]; [4],107.38 ppm
same,Anacardic Acid 15:2 Composition (%),[1]; [4],14.05%
same,Anacardic Acid 15:2 concentration,[1]; [4],42.98 ppm
same,Anacardic Acid 15:3 Composition (%),[1]; [4],33.26%
same,Anacardic Acid 15:3 concentration,[1]; [4],101.71 ppm
same,Cardanol 15:1 Composition (%),[1]; [4],7.60%
same,Cardanol 15:1 concentration,[1]; [4],23.26 ppm
same,Cardanol 15:2 Composition (%),[1]; [4],3.09%
same,Cardanol 15:2 concentration,[1]; [4],9.45 ppm
same,Cardanol 15:3 Composition (%),[1]; [4],6.88%
same,Cardanol 15:3 concentration,[1]; [4],21.05 ppm
same,Anacardic Acid 15:1 Composition (%),[1]; [5],27.63%
same,Anacardic Acid 15:1 concentration,[1]; [5],61.63 ppm
same,Anacardic Acid 15:2 Composition (%),[1]; [5],11.56%
same,Anacardic Acid 15:2 concentration,[1]; [5],25.79 ppm
same,Anacardic Acid 15:3 Composition (%),[1]; [5],26.75%
same,Anacardic Acid 15:3 concentration,[1]; [5],59.67 ppm
same,Cardanol 15:1 Composition (%),[1]; [5],15.11%
same,Cardanol 15:1 concentration,[1]; [5],33.70 ppm
same,Cardanol 15:2 Composition (%),[1]; [5],5.60%
same,Cardanol 15:2 concentration,[1]; [5],12.49 ppm
same,Cardanol 15:3 Composition (%),[1]; [5],13.34%
same,Cardanol 15:3 concentration,[1]; [5],29.75 ppm
same,inhibition of the decarboxylation,[1]; 1% by weight,moderate inhibition
same,Anacardic Acid 15:1 Composition (%),[1]; [6],35.11%
same,Anacardic Acid 15:1 concentration,[1]; [6],107.38 ppm
same,Anacardic Acid 15:2 Composition (%),[1]; [6],14.05%
same,Anacardic Acid 15:2 concentration,[1]; [6],42.98 ppm
same,Anacardic Acid 15:3 Composition (%),[1]; [6],33.26%
same,Anacardic Acid 15:3 concentration,[1]; [6],101.71 ppm
same,Cardanol 15:1 Composition (%),[1]; [6],7.60%
same,Cardanol 15:1 concentration,[1]; [6],23.26 ppm
same,Cardanol 15:2 Composition (%),[1]; [6],3.09%
same,Cardanol 15:2 concentration,[1]; [6],9.45 ppm
same,Cardanol 15:3 Composition (%),[1]; [6],6.88%
same,Cardanol 15:3 concentration,[1]; [6],21.05 ppm
same,Anacardic Acid 15:1 Composition (%),[1]; [7],29.16%
same,Anacardic Acid 15:1 concentration,[1]; [7],101.34 ppm
same,Anacardic Acid 15:2 Composition (%),[1]; [7],11.39%
same,Anacardic Acid 15:2 concentration,[1]; [7],39.59 ppm
same,Anacardic Acid 15:3 Composition (%),[1]; [7],27.51%
same,Anacardic Acid 15:3 concentration,[1]; [7],95.61 ppm
same,Cardanol 15:1 Composition (%),[1]; [7],14.21%
same,Cardanol 15:1 concentration,[1]; [7],49.37 ppm
same,Cardanol 15:2 Composition (%),[1]; [7],5.34%
same,Cardanol 15:2 concentration,[1]; [7],18.56 ppm
same,Cardanol 15:3 Composition (%),[1]; [7],12.39%
same,Cardanol 15:3 concentration,[1]; [7],43.07 ppm
same,inhibition of the decarboxylation,[1]; 5% by weight,significant inhibition
"NCC(=O)O [Glycine, glycine]",Anacardic Acid 15:1 Composition (%),[2]; [4],40.00%
same,Anacardic Acid 15:1 concentration,[2]; [4],346.59 ppm
same,Anacardic Acid 15:2 Composition (%),[2]; [4],13.66%
same,Anacardic Acid 15:2 concentration,[2]; [4],118.36 ppm
same,Anacardic Acid 15:3 Composition (%),[2]; [4],32.88%
same,Anacardic Acid 15:3 concentration,[2]; [4],284.89 ppm
same,Cardanol 15:1 Composition (%),[2]; [4],5.65%
same,Cardanol 15:1 concentration,[2]; [4],48.94 ppm
same,Cardanol 15:2 Composition (%),[2]; [4],2.42%
same,Cardanol 15:2 concentration,[2]; [4],20.93 ppm
same,Cardanol 15:3 Composition (%),[2]; [4],5.40%
same,Cardanol 15:3 concentration,[2]; [4],46.76 ppm
same,Anacardic Acid 15:1 Composition (%),[2]; [8],23.47%
same,Anacardic Acid 15:1 concentration,[2]; [8],78.82 ppm
same,Anacardic Acid 15:2 Composition (%),[2]; [8],8.29%
same,Anacardic Acid 15:2 concentration,[2]; [8],27.85 ppm
same,Anacardic Acid 15:3 Composition (%),[2]; [8],18.80%
same,Anacardic Acid 15:3 concentration,[2]; [8],63.14 ppm
same,Cardanol 15:1 Composition (%),[2]; [8],21.95%
same,Cardanol 15:1 concentration,[2]; [8],73.71 ppm
same,Cardanol 15:2 Composition (%),[2]; [8],7.93%
same,Cardanol 15:2 concentration,[2]; [8],26.64 ppm
same,Cardanol 15:3 Composition (%),[2]; [8],19.54%
same,Cardanol 15:3 concentration,[2]; [8],65.62 ppm
same,inhibition of the decarboxylation,"[2]; 1 and 10% by weight, 6 days",subtle inhibition
same,Anacardic Acid 15:1 Composition (%),[2]; [9],40.00%
same,Anacardic Acid 15:1 concentration,[2]; [9],346.59 ppm
same,Anacardic Acid 15:2 Composition (%),[2]; [9],13.66%
same,Anacardic Acid 15:2 concentration,[2]; [9],118.36 ppm
same,Anacardic Acid 15:3 Composition (%),[2]; [9],32.88%
same,Anacardic Acid 15:3 concentration,[2]; [9],284.89 ppm
same,Cardanol 15:1 Composition (%),[2]; [9],5.65%
same,Cardanol 15:1 concentration,[2]; [9],48.94 ppm
same,Cardanol 15:2 Composition (%),[2]; [9],2.42%
same,Cardanol 15:2 concentration,[2]; [9],20.93 ppm
same,Cardanol 15:3 Composition (%),[2]; [9],5.40%
same,Cardanol 15:3 concentration,[2]; [9],46.76 ppm
same,Anacardic Acid 15:1 Composition (%),[2]; [10],28.28%
same,Anacardic Acid 15:1 concentration,[2]; [10],94.58 ppm
same,Anacardic Acid 15:2 Composition (%),[2]; [10],9.99%
same,Anacardic Acid 15:2 concentration,[2]; [10],33.42 ppm
same,Anacardic Acid 15:3 Composition (%),[2]; [10],22.66%
same,Anacardic Acid 15:3 concentration,[2]; [10],75.77 ppm
same,Cardanol 15:1 Composition (%),[2]; [10],17.35%
same,Cardanol 15:1 concentration,[2]; [10],58.02 ppm
same,Cardanol 15:2 Composition (%),[2]; [10],6.27%
same,Cardanol 15:2 concentration,[2]; [10],20.97 ppm
same,Cardanol 15:3 Composition (%),[2]; [10],15.45%
same,Cardanol 15:3 concentration,[2]; [10],51.65 ppm
"O=C(O)C(O)C(O)C(=O)O (stereo not drawn) [Tartaric Acid, tartaric acid]",Anacardic Acid 15:1 Composition (%),[3]; [11],42.00%
same,Anacardic Acid 15:1 concentration,[3]; [11],351.16 ppm
same,Anacardic Acid 15:2 Composition (%),[3]; [11],13.27%
same,Anacardic Acid 15:2 concentration,[3]; [11],110.99 ppm
same,Anacardic Acid 15:3 Composition (%),[3]; [11],31.29%
same,Anacardic Acid 15:3 concentration,[3]; [11],261.63 ppm
same,Cardanol 15:1 Composition (%),[3]; [11],5.69%
same,Cardanol 15:1 concentration,[3]; [11],47.57 ppm
same,Cardanol 15:2 Composition (%),[3]; [11],2.50%
same,Cardanol 15:2 concentration,[3]; [11],20.90 ppm
same,Cardanol 15:3 Composition (%),[3]; [11],5.25%
same,Cardanol 15:3 concentration,[3]; [11],43.86 ppm
same,Anacardic Acid 15:1 Composition (%),[3]; [12],30.33%
same,Anacardic Acid 15:1 concentration,[3]; [12],272.03 ppm
same,Anacardic Acid 15:2 Composition (%),[3]; [12],10.57%
same,Anacardic Acid 15:2 concentration,[3]; [12],94.78 ppm
same,Anacardic Acid 15:3 Composition (%),[3]; [12],24.25%
same,Anacardic Acid 15:3 concentration,[3]; [12],217.48 ppm
same,Cardanol 15:1 Composition (%),[3]; [12],15.59%
same,Cardanol 15:1 concentration,[3]; [12],139.84 ppm
same,Cardanol 15:2 Composition (%),[3]; [12],5.66%
same,Cardanol 15:2 concentration,[3]; [12],50.74 ppm
same,Cardanol 15:3 Composition (%),[3]; [12],13.62%
same,Cardanol 15:3 concentration,[3]; [12],122.16 ppm
same,Anacardic Acid 15:1 Composition (%),[3]; [9],39.70%
same,Anacardic Acid 15:1 concentration,[3]; [9],250.76 ppm
same,Anacardic Acid 15:2 Composition (%),[3]; [9],14.24%
same,Anacardic Acid 15:2 concentration,[3]; [9],89.95 ppm
same,Anacardic Acid 15:3 Composition (%),[3]; [9],32.59%
same,Anacardic Acid 15:3 concentration,[3]; [9],205.85 ppm
same,Cardanol 15:1 Composition (%),[3]; [9],5.45%
same,Cardanol 15:1 concentration,[3]; [9],34.40 ppm
same,Cardanol 15:2 Composition (%),[3]; [9],2.70%
same,Cardanol 15:2 concentration,[3]; [9],17.07 ppm
same,Cardanol 15:3 Composition (%),[3]; [9],5.31%
same,Cardanol 15:3 concentration,[3]; [9],33.53 ppm
same,Anacardic Acid 15:1 Composition (%),[3]; [10],39.12%
same,Anacardic Acid 15:1 concentration,[3]; [10],267.36 ppm
same,Anacardic Acid 15:2 Composition (%),[3]; [10],13.52%
same,Anacardic Acid 15:2 concentration,[3]; [10],92.36 ppm
same,Anacardic Acid 15:3 Composition (%),[3]; [10],31.14%
same,Anacardic Acid 15:3 concentration,[3]; [10],212.78 ppm
same,Cardanol 15:1 Composition (%),[3]; [10],6.81%
same,Cardanol 15:1 concentration,[3]; [10],46.56 ppm
same,Cardanol 15:2 Composition (%),[3]; [10],3.24%
same,Cardanol 15:2 concentration,[3]; [10],22.13 ppm
same,Cardanol 15:3 Composition (%),[3]; [10],6.17%
same,Cardanol 15:3 concentration,[3]; [10],42.19 ppm
